These results are taken from patent US4072686A, “1-(3,3,3-Triarylalkyl)-4-phenyl-piperidinealkanols” (G. D. Searle & Co., priority 1976, dated 1978).

Assay [1] in a line: Analgesic effect in the mouse hot plate and tail clip tests. The class given is in vivo. As for the experimental part: (§1) The assessment of the analgesic effect of the instant compounds was conducted in the mouse hot plate and tail clip tests.
A mouse (adult male weighing 18-25 grams) is placed in a restraining cylinder on a hot plate with the temperature controlled at 55° ± 0.3° C. The reaction time of the mouse to lick a foot or jump is measured at 60, 40 and 20 minutes before and 30, 60, 90 and 120 minutes after administration of the test compound. The "normal" reaction time is measured as the median of the three pretreatment reaction times. A positive response consists of a reaction time greater than twice the normal time at any of the post treatment times. A dose of the test compound is considered active when 50 percent or more of the animals used show a positive response.
A special clip is applied to the base of the tail of the mouse (adult male weighing 18-25 grams) and the time for the animal to turn around to bite as it is measured. The sensitivity of each mouse is determined one-half hour prior to drug administration. Only those mice attempting to bite the clip are included in the experiment. The test compound is then administered intragastrically and the response to placement of the clip is determined at 30, 60, 90 and 120 minutes after treatment. A response is considered positive if the animal takes more than 2 times the pre-drug time to bite at the clip at any of these time intervals. […]

Assay [2] in a line: Castor oil induced diarrhea in the rat. Conditions: for Potency (relative to diphenoxylate hydrochloride): oral, diphenoxylate = 1.0. The class given is in vivo, rat (adult Charles River male). The procedure: CASTOR OIL INDUCED DIARRHEA IN THE RAT
Adult Charles River male rats were fasted in community cages for 24 hours prior to the test, with free access to water. The compound was administered intragastrically (suspended on 0.5% methylcellulose) one hour prior to the administration of castor oil at the dose of 1.0 ml/rat intragastrically. The rats were then observed for the presence or absence of diarrhea, at hourly intervals for up to 8 hours past administration of castor oil. The median effective dose values at each hourly interval were calculated for the compound using the method of Berkson (1953). […] For example:
Comparative Oral Antidiarrheal Potency and Duration of 1-(3,3,3-triphenylpropyl)-4-phenyl-4-piperidinemethanol hydrochloride (a) to Diphenoxylate hydrochloride in the Rat Castor Oil Diarrhea Test

The nature of assay [3]: Mouse tail clip test (analgesia). Conditions: at 100 and 30 mpk. Type of assay: in vivo. As for the experimental part: as §1
A special clip is applied to the base of the tail of the mouse (adult male weighing 18-25 grams) and the time for the animal to turn around to bite as it is measured. The sensitivity of each mouse is determined one-half hour prior to drug administration. Only those mice attempting to bite the clip are included in the experiment. The test compound is then administered intragastrically and the response to placement of the clip is determined at 30, 60, 90 and 120 minutes after treatment. A response is considered positive if the animal takes more than 2 times the pre-drug time to bite at the clip at any of these time intervals. A test compound is considered active when 50 percent or more of the animals used show a positive response.

The mark [4] stands for this setting: Rat2, oral (intragastric), rat, 2 hours after castor oil, read-out: ED50.
Setting [5] is: oral (intragastric), rat, 3 hours after castor oil, read-out: ED50.
The mark [6] stands for this setting: oral (intragastric), rat, 4 hours after castor oil, read-out: ED50.
Setting [7] is: oral (intragastric), rat, 5 hours after castor oil, read-out: ED50.
The mark [8] stands for this setting: oral (intragastric), rat, 6 hours after castor oil, read-out: ED50.
Setting [9] is: oral (intragastric), rat, 7 hours after castor oil, read-out: ED50.
Setting [10] is: oral (intragastric), rat, 8 hours after castor oil, read-out: ED50.

Read-outs that look alike come from different tables or passages of the source.

With `OCC1(c2ccccc2)CCN(CCC(c2ccccc2)(c2ccccc2)c2ccccc2)CC1` [1-(3,3,3-triphenylpropyl)-4-phenyl-4-piperidinemethanol], in assay [1], the analgesic effect entry is recorded as “very little analgesic effect”. Moreover, the “ability to inhibit gastrointestinal motility” value in assay [2] (intragastric, rat) is recorded as “very active”.

`Cl.OCC1(c2ccccc2)CCN(CCC(c2ccccc2)(c2ccccc2)c2ccccc2)CC1` [(a), 1-(3,3,3-triphenylpropyl)-4-phenyl-4-piperidinemethanol hydrochloride]: the ED50 (in general, the midpoint of the dose-response relation) in assay [2] (setting [4]) was found to be 0.14 mg/kg; in assay [2] (setting [5]), 0.18 mg/kg; in assay [2] (setting [6]) it was 0.24 mg/kg; in assay [2] (setting [7]) it was 0.28 mg/kg; in assay [2] (setting [8]) it was 0.28 mg/kg; in assay [2] (setting [9]), 0.28 mg/kg. Besides, in assay [2] (setting [10]), the ED50 came to 0.35 mg/kg. Moreover, the “Potency (relative to diphenoxylate hydrochloride)” value in assay [2] (rat, 2 hours after castor oil) is given as 1.35; in assay [2] (rat, 3 hours after castor oil), 2.25; in assay [2] (rat, 4 hours after castor oil), 3.25; in assay [2] (rat, 5 hours after castor oil), 4.33; in assay [2] (rat, 6 hours after castor oil) it was 5.71; in assay [2] (rat, 7 hours after castor oil), 6.44. In addition, the “Potency (relative to diphenoxylate hydrochloride)” value in assay [2] (rat, 8 hours after castor oil) is recorded as 5.42.

Regarding `CCOC(=O)C1(c2ccccc2)CCN(CCC(C#N)(c2ccccc2)c2ccccc2)CC1` [Diphenoxylate, reference compound], the ED50 in assay [2] (setting [4]) was determined as 0.22 mg/kg; in assay [2] (setting [5]) it was 0.36 mg/kg; in assay [2] (setting [6]), 0.71 mg/kg; in assay [2] (setting [7]), 1.21 mg/kg; in assay [2] (setting [8]) it was 1.62 mg/kg; in assay [2] (setting [9]), 1.85 mg/kg. Besides, the ED50 in assay [2] (setting [10]) amounted to 1.93 mg/kg.

As to `CCOC(=O)C1(c2ccccc2)CCN(CCC(c2ccccc2)(c2ccccc2)c2ccccn2)CC1` [ethyl 1-[3,3-diphenyl-3-(2-pyridyl)propyl]-4-phenyl-4-piperidinecarboxylate], in assay [3], the “analgesia (mouse tail clip test)” value is “weak analgesia”. Moreover, the ED50 in assay [2] (Rattus norvegicus, po, 2 h, read-out: ED50 2 hrs. post castor oil) worked out at 0.04 mg/kg.
